According to US11124517B2 (CRYSTAL PHARMACEUTICAL (SUZHOU) CO., LTD., priority 2017, dated 2021):
≈ marks a conversion by molar mass, not a printed value. One block for each molecule: values may come before it.

Key:
[1] = Stability of Form G on storage, crystalline form checked by XRPD; format: physicochemical; settings: for Crystalline form after storage: XRPD
Text: Crystalline forms were checked by XRPD.

physchem = settings: thermodynamic from solid
Experimental: (§1) Simulated gastrointestinal fluids such as SGF (Simulated gastric fluids), FaSSIF (Fasted state simulated intestinal fluids) and FeSSIF (Fed state simulated intestinal fluids) are biorelevant media. […] 20 mg of Form G and 20 mg of crystalline form of the prior art were suspended into 1.5 mL of SGF, 1.5 mL of FaSSIF, 1.5 mL of FaSSIF and 1.5 mL of water to get saturated solutions. After equilibrated for 1 h, 4 h and 24 h, concentrations of the saturated solutions were measured by HPLC (mg/mL).

[2] = Adhesiveness: material sticking to the punch on tableting; format: physicochemical; settings: 30 mg, φ8 mm round tooling, 10 KN, 30 s
Experimental: 30 mg of Form G and the crystalline form of the prior art were weighed and added into the dies of φ8 mm round tooling, tableted at 10 KN and held for 30 s. The amount of material sticking to the punch was weighed. The compression was repeated twice and the cumulative amount, maximum amount and average amount of material sticking to the punch during the compression process were recorded.

[3] = Bulk and tapped density of powder; format: physicochemical; settings: for Bulk density (ρ0): about 500 mg in 5-mL measuring cylinder; for Tapped density (ρf): tapped 1250 times
Experimental: The density of powder is mainly referred to the bulk density and tapped density. The bulk density refers to the density obtained by dividing the mass of the powder by the volume of the powder in the container. The tapped density is obtained by dividing the mass of the powder by the volume of the powder which is tapped to the tightest state.
About 500 mg of Form G and the crystalline form of the prior art are added into a 5-mL measuring cylinder to measure the bulk volumes. The bulk density was calculated according to the equation: bulk density ρ0=powder mass/bulk volume. The samples were tapped 1250 times to make them in the tightest state and the tapped volumes were recorded. The tapped density was calculated according to tapped density ρf=powder mass/tapped volume.

[4] = Hygroscopicity by dynamic vapor sorption (DVS); format: physicochemical
Experimental: Dynamic vapor sorption (DVS) was applied to test hygroscopicity of Form G and the crystalline form of the prior art with about 10 mg of samples. The weight gains at each relative humidity were recorded in a cycle of 0-95%-0 RH.

[5] = Flowability by compressibility index (Carr index); format: physicochemical; settings: graded from compressibility index
Experimental: Compressibility is usually used to evaluate the flowability of powder and granular intermediates during the formulation process, and is known as compressibility index (c). Compressibility index test method is as follows: a certain amount of powder was added into a measuring cylinder and bulk volume was recorded. Then the powder was tapped to make it in the tightest state, and the tapped volume was recorded. The bulk density (ρ0), tapped density (ρf) were calculated, and compressibility index was calculated according to c=(ρf−ρ0)/pf. Compressibility index, also known as Carr index, is an important index for evaluating flowability.
The test method of Compressibility index is as follows: Compressibility index was calculated according to bulk density ρ0 and tapped density ρf of Form G and the crystalline form of the prior art with c=(ρf−ρ0)/ρf*100%.

[6] = Kinetic solubility in biorelevant media and water (HPLC); settings: thermodynamic from solid
Experimental: as §1

[7] = FaSSIF (fasted state simulated intestinal fluid), fassif
[8] = FeSSIF (fed state simulated intestinal fluid), fessif
[9] = SGF (simulated gastric fluid), simulated gastric fluid

Time for which the form is stable ([1]; 25° C./60% RH (long term)): at least 6 months
Crystalline form after storage ([1]; 25° C./60% RH, 6 months): Form G
Time for which the form is stable ([1]; 40° C./75% RH (accelerated)): at least 6 months
Crystalline form after storage ([1]; 40° C./75% RH, 6 months): Form G
Time for which the form is stable ([1]; 60° C./75% RH): at least 1 week
Crystalline form after storage ([1]; 60° C./75% RH, 1 week): Form G
Time for which the form is stable ([1]; 80° C.): at least 1 week
Crystalline form after storage ([1]; 80° C., 1 week): Form G
solubility kinetic at 1 h (physchem; fassif): 81 µg/mL (≈ 218 µM)
solubility kinetic at 4 h (physchem; fassif): 100 µg/mL (≈ 269 µM)
solubility kinetic at 24 h (physchem; fassif): 140 µg/mL (≈ 377 µM)
solubility kinetic at 1 h (physchem; fessif): 130 µg/mL (≈ 350 µM)
solubility kinetic at 4 h (physchem; fessif): 170 µg/mL (≈ 458 µM)
solubility kinetic at 24 h (physchem; fessif): 220 µg/mL (≈ 592 µM)
solubility kinetic at 1 h (physchem; simulated gastric fluid): 2600 µg/mL (≈ 7000 µM)
solubility kinetic at 4 h (physchem; simulated gastric fluid): 2700 µg/mL (≈ 7270 µM)
solubility kinetic at 24 h (physchem; simulated gastric fluid): 2800 µg/mL (≈ 7540 µM)
solubility kinetic at 1 h (physchem; water): 52 µg/mL (≈ 140 µM)
solubility kinetic at 4 h (physchem; water): 66 µg/mL (≈ 178 µM)
solubility kinetic at 24 h (physchem; water): 96 µg/mL (≈ 258 µM)
Average amount of material sticking to the punch [2]: 0.06 mg
Cumulative amount of material sticking to the punch [2]: 0.12 mg
Maximum amount of material sticking to the punch [2]: 0.12 mg
Bulk density (ρ0) [3]: 0.538 g/mL
Tapped density (ρf) [3]: 0.614 g/mL
Weight gain % ([4]; Relative humidity 0): 0%
Weight gain % ([4]; Relative humidity 10%): 0.01%
Weight gain % ([4]; Relative humidity 20%): 0.03%
Weight gain % ([4]; Relative humidity 30%): 0.04%
Weight gain % ([4]; Relative humidity 40%): 0.06%
Weight gain % ([4]; Relative humidity 50%): 0.07%
Weight gain % ([4]; Relative humidity 60%): 0.10%
Weight gain % ([4]; Relative humidity 70%): 0.15%
Weight gain % ([4]; Relative humidity 80%): 0.21%
Weight gain % ([4]; Relative humidity 90%): 0.27%
Weight gain % ([4]; Relative humidity 95%): 0.34%
Crystalline form change before and after DVS ([4]; XRPD overlay, cycle 0-95%-0 RH): no crystalline form change
SMILES: CCS(=O)(=O)N1CC(CC#N)(n2cc(-c3ncnc4[nH]ccc34)cn2)C1 [Form G, Baricitinib]

Flowability [5]: Very poor (32-37)
Flowability ([5]; listed as the prior art form): very poor
Average amount of material sticking to the punch [2]: 0.21 mg
Cumulative amount of material sticking to the punch [2]: 0.41 mg
Maximum amount of material sticking to the punch [2]: 0.43 mg
Bulk density (ρ0) [3]: 0.133 g/mL
Tapped density (ρf) [3]: 0.204 g/mL
solubility kinetic at 1 h [6, 7]: 16 µg/mL (≈ 43.1 µM)
solubility kinetic at 4 h [6, 7]: 18 µg/mL (≈ 48.5 µM)
solubility kinetic at 24 h [6, 7]: 18 µg/mL (≈ 48.5 µM)
solubility kinetic at 1 h [6, 8]: 35 µg/mL (≈ 94.2 µM)
solubility kinetic at 4 h [6, 8]: 31 µg/mL (≈ 83.5 µM)
solubility kinetic at 24 h [6, 8]: 33 µg/mL (≈ 88.8 µM)
solubility kinetic at 1 h [6, 9]: 1900 µg/mL (≈ 5120 µM)
solubility kinetic at 4 h [6, 9]: 1900 µg/mL (≈ 5120 µM)
solubility kinetic at 24 h [6, 9]: 1900 µg/mL (≈ 5120 µM)
solubility kinetic at 1 h ([6]; water): 8.9 µg/mL (≈ 24 µM)
solubility kinetic at 4 h ([6]; water): 12 µg/mL (≈ 32.3 µM)
solubility kinetic at 24 h ([6]; water): 13 µg/mL (≈ 35 µM)
Weight gain % ([4]; Relative humidity 0): 0%
Weight gain % ([4]; Relative humidity 10%): 0.07%
Weight gain % ([4]; Relative humidity 20%): 0.11%
Weight gain % ([4]; Relative humidity 30%): 0.15%
Weight gain % ([4]; Relative humidity 40%): 0.19%
Weight gain % ([4]; Relative humidity 50%): 0.24%
Weight gain % ([4]; Relative humidity 60%): 0.30%
Weight gain % ([4]; Relative humidity 70%): 0.36%
Weight gain % ([4]; Relative humidity 80%): 0.44%
Weight gain % ([4]; Relative humidity 90%): 0.59%
Weight gain % ([4]; Relative humidity 95%): 0.78%
SMILES: CCS(=O)(=O)N1CC(CC#N)(n2cc(-c3ncnc4[nH]ccc34)cn2)C1 [Crystalline form of the prior art, Baricitinib, reference compound]
